Tested on: MV4-11 cells (FLT3-ITD-expressing AML cell line)
Test: Cell proliferation inhibition, Alamar Blue
Assay type: cell-based, human
Conditions: Homo sapiens, MV4-11, 72 hours of compound treatment, read-out: Cellular (GI50) MV4-11
Method: The cell proliferation inhibition experiment on acute myeloid leukemia (AML) cell lines was performed using FL3-ITD-expressing AML cell line MV4-11, BaF3-ITD-FLT3 F691L cell line, and BaF3-ITD-FLT3 D835Y cell line to test FLT3 inhibitory activity. All cell lines were human-derived cell lines, and the sources and culture conditions for each cell line are as follows.
Cell viability was assessed by a resazurin redox-based assay using the Alamar Blue Assay kit (Invitrogen, USA). Specifically, MV4-11, BaF3-ITD-FLT3-F691L, and BaF3-ITD-FLT3-D835Y cells were plated in 384-well plates at 8,000 cells in 45 μL of medium. As a negative control, dimethyl sulfoxide (DMSO) was added together with the compound. After three days (72 hours) of compound treatment, 5 μL of the Alamar Blue kit reagent was added to each well of the 384-well plates, followed by incubation at 37° C. for 2 hours in a humidified CO2 incubator. After incubation, fluorescence intensity (Flu) was measured at 544 nm and 590 nm using a SpectraMax iD3 Multi Mode Microplate Reader (Molecular Devices, ID3-STD).

First: NCCCNC(=O)c1ccc2[nH]nc(-c3nc4ccc(Br)cc4[nH]3)c2c1 [Example 28, N-(3-aminopropyl)-3-(6-bromo-1H-benzo[d]imidazol-2-yl)-1H-indazole-5-carboxamide]
Second: NCCCCNC(=O)c1ccc2[nH]nc(-c3nc4ccc(F)cc4[nH]3)c2c1 [Example 39, N-(4-aminobutyl)-3-(6-fluoro-1H-benzo[d]imidazol-2-yl)-1H-indazole-5-carboxamide]
The GI50 of the first is lower: 10 to 100 nM for the first, 100 to 1000 nM for the second.

`CN1CCN(C(=O)c2ccc3[nH]nc(-c4nc(-c5ccccc5)c[nH]4)c3c2)CC1` [Example 99, (4-methylpiperazin-1-yl)(3-(4-phenyl-1H-imidazol-2-yl)-1H-indazol-5-yl)methanone] and `O=C(c1ccc2[nH]nc(-c3nc(-c4ccccc4)c[nH]3)c2c1)N1CCN(c2ccc(F)cc2)CC1` [Example 97, (4-(4-fluorophenyl)piperazin-1-yl)(3-(4-phenyl-1H-imidazol-2-yl)-1H-indazol-5-yl)methanone] cannot be ordered by GI50: > 1000 nM for the first, > 1000 nM for the second.

Compared with `CS(=O)(=O)NCCNC(=O)c1ccc2[nH]nc(-c3nc(-c4ccccc4)c[nH]3)c2c1` [Example 94, N-(2-(methylsulfonamido)ethyl)-3-(4-phenyl-1H-imidazol-2-yl)-1H-indazole-5-carboxamide], `CN(C)CCNC(=O)c1ccc2[nH]nc(-c3nc(-c4ccccc4)c[nH]3)c2c1` [Example 95, N-(2-(dimethylamino)ethyl)-3-(4-phenyl-1H-imidazol-2-yl)-1H-indazole-5-carboxamide] is lower in GI50: > 1000 nM for the first, 100 to 1000 nM for the second.

`CN(C)CCNC(=O)c1ccc2[nH]nc(-c3nc4ccc(F)cc4[nH]3)c2c1` [Example 35, N-(2-(dimethylamino)ethyl)-3-(6-fluoro-1H-benzo[d]imidazol-2-yl)-1H-indazole-5-carboxamide] and `CN(C)CCCNC(=O)c1ccc2[nH]nc(-c3nc4ccc(F)cc4[nH]3)c2c1` [Example 36, N-(3-(dimethylamino)propyl)-3-(6-fluoro-1H-benzo[d]imidazol-2-yl)-1H-indazole-5-carboxamide] fall in the same range of GI50: 10 to 100 nM for the first, 10 to 100 nM for the second.

`NCCCNC(=O)c1ccc2[nH]nc(-c3ncc(-c4ccccc4F)[nH]3)c2c1` [Example 83, N-(3-aminopropyl)-3-(5-(2-fluorophenyl)-1H-imidazol-2-yl)-1H-indazole-5-carboxamide] and `NCCCNC(=O)c1ccc2[nH]nc(-c3ncc(-c4ccc(Cl)c(F)c4)[nH]3)c2c1` [Example 85, N-(3-aminopropyl)-3-(5-(4-chloro-3-fluorophenyl)-1H-imidazol-2-yl)-1H-indazole-5-carboxamide] fall in the same range of GI50: 10 to 100 nM for the first, 10 to 100 nM for the second.

Compared with `CNC1CCN(C(=O)c2ccc3[nH]nc(-c4nc5ccc(N6CCOCC6)cc5[nH]4)c3c2)CC1` [Example 70, (4-(methylamino)piperidin-1-yl)(3-(6-morpholino-1H-benzo[d]imidazol-2-yl)-1H-indazol-5-yl)methanone], `CN(C)CCNC(=O)c1ccc2[nH]nc(-c3nc4ccc(N5CCOCC5)cc4[nH]3)c2c1` [Example 62, N-(2-(dimethylamino)ethyl)-3-(6-morpholino-1H-benzo[d]imidazol-2-yl)-1H-indazole-5-carboxamide] is lower in GI50: 10 to 100 nM for the first, < 10 nM for the second.

`O=C(NC1CCNCC1)c1ccc2[nH]nc(-c3nc4ccc(F)cc4[nH]3)c2c1` [Example 40, 3-(6-fluoro-1H-benzo[d]imidazol-2-yl)-N-(piperidin-4-yl)-1H-indazole-5-carboxamide] and `NCCNC(=O)c1ccc2[nH]nc(-c3nc4ccc(F)cc4[nH]3)c2c1` [Example 37, N-(2-aminoethyl)-3-(6-fluoro-1H-benzo[d]imidazol-2-yl)-1H-indazole-5-carboxamide] fall in the same range of GI50: 10 to 100 nM for the first, 10 to 100 nM for the second.

First: NCCCNC(=O)c1ccc2[nH]nc(-c3ncc(-c4cccc(N5CCOCC5)c4)[nH]3)c2c1 [Example 91, N-(3-aminopropyl)-3-(5-(3-morpholinophenyl)-1H-imidazol-2-yl)-1H-indazole-5-carboxamide]
Second: NCCCNC(=O)c1ccc2[nH]nc(-c3ncc(-c4ccc(N5CCOCC5)cc4)[nH]3)c2c1 [Example 90, N-(3-aminopropyl)-3-(5-(4-morpholinophenyl)-1H-imidazol-2-yl)-1H-indazole-5-carboxamide]
The GI50 of the first is lower: 10 to 100 nM for the first, 100 to 1000 nM for the second.

First: NCCCNC(=O)c1ccc2[nH]nc(-c3nc4ccc(F)cc4n3CCO)c2c1 [Example 109, N-(3-aminopropyl)-3-(6-fluoro-1-(2-hydroxyethyl)-1H-benzo[d]imidazol-2-yl)-1H-indazole-5-carboxamide]
Second: NCCCNC(=O)c1ccc2[nH]nc(-c3nc4cccc(F)c4[nH]3)c2c1 [Example 25, N-(3-aminopropyl)-3-(7-fluoro-1H-benzo[d]imidazol-2-yl)-1H-indazole-5-carboxamide]
The GI50 of the first is higher: > 1000 nM for the first, 10 to 100 nM for the second.

First: NCCCNC(=O)c1ccc2[nH]nc(-c3ncc(COc4ccccc4)[nH]3)c2c1 [Example 115, N-(3-aminopropyl)-3-(5-(phenoxymethyl)-1H-imidazol-2-yl)-1H-indazole-5-carboxamide]
Second: COc1cccc(-c2cnc(-c3n[nH]c4ccc(C(=O)NCCCN)cc34)[nH]2)c1 [Example 88, N-(3-aminopropyl)-3-(5-(3-methoxyphenyl)-1H-imidazol-2-yl)-1H-indazole-5-carboxamide]
The GI50 of the first is higher: > 1000 nM for the first, 10 to 100 nM for the second.

First: NC1CCN(CCNC(=O)c2ccc3[nH]nc(-c4nc5ccccc5[nH]4)c3c2)CC1 [Example 8, N-(2-(4-aminopiperidin-1-yl)ethyl)-3-(1H-benzo[d]imidazol-2-yl)-1H-indazole-5-carboxamide]
Second: NC1CCN(CCNC(=O)c2ccc3[nH]nc(-c4nc(-c5ccccc5)c[nH]4)c3c2)CC1 [Example 103, N-(2-(4-aminopiperidin-1-yl)ethyl)-3-(4-phenyl-1H-imidazol-2-yl)-1H-indazole-5-carboxamide]
The GI50 of the first is lower: 10 to 100 nM for the first, > 1000 nM for the second.

First: CN(C)CCCNC(=O)c1ccc2[nH]nc(-c3nc4cc(F)c(F)cc4[nH]3)c2c1 [Example 9, 3-(5,6-difluoro-1H-benzo[d]imidazol-2-yl)-N-(3-(dimethylamino)propyl)-1H-indazole-5-carboxamide]
Second: CC(=O)NCCCNC(=O)c1ccc2[nH]nc(-c3nc4ccc(N5CCCCC5)cc4[nH]3)c2c1 [Example 33, N-(3-acetamidopropyl)-3-(6-(piperidin-1-yl)-1H-benzo[d]imidazol-2-yl)-1H-indazole-5-carboxamide]
The GI50 of the first is higher: 10 to 100 nM for the first, < 10 nM for the second.

`NCCCNC(=O)c1ccc2[nH]nc(-c3ncc(-c4cccc([N+](=O)[O-])c4)[nH]3)c2c1` [Example 89, N-(3-aminopropyl)-3-(5-(3-nitrophenyl)-1H-imidazol-2-yl)-1H-indazole-5-carboxamide] and `NCCCNC(=O)c1ccc2[nH]nc(-c3ncc(-c4cccc(O)c4)[nH]3)c2c1` [Example 92, N-(3-aminopropyl)-3-(5-(3-hydroxyphenyl)-1H-imidazol-2-yl)-1H-indazole-5-carboxamide] fall in the same range of GI50: 100 to 1000 nM for the first, 100 to 1000 nM for the second.

First: NCCCNC(=O)c1ccc2[nH]nc(-c3nc(C(N)=O)c(-c4ccccc4)[nH]3)c2c1 [Example 113, N-(3-aminopropyl)-3-(4-carbamoyl-5-phenyl-1H-imidazol-2-yl)-1H-indazole-5-carboxamide]
Second: NCCCNC(=O)c1ccc2[nH]nc(-c3ncc(-c4ccc(C(F)(F)F)cc4)[nH]3)c2c1 [Example 86, N-(3-aminopropyl)-3-(5-(4-(trifluoromethyl)phenyl)-1H-imidazol-2-yl)-1H-indazole-5-carboxamide]
The GI50 of the first is higher: 100 to 1000 nM for the first, 10 to 100 nM for the second.
